Laboratory results published in US8940310B2, “Methods of treatment using TLR7 and/or TLR9 inhibitors” (Dynavax Technologies Corporation, priority 2010, dated 2015).

Experiments:
TLR7 = target: T1, TLR7 (Mus musculus, UniProt P58681); experiment: Tape stripping in TLR9-deficient mice; assay type: in vivo; conditions: 100 μg sc, 24 hr
T1 construct: endogenous in cells; host or cells: primary splenocytes of BALB/c mice
T1 sequence (P58681 27-1050): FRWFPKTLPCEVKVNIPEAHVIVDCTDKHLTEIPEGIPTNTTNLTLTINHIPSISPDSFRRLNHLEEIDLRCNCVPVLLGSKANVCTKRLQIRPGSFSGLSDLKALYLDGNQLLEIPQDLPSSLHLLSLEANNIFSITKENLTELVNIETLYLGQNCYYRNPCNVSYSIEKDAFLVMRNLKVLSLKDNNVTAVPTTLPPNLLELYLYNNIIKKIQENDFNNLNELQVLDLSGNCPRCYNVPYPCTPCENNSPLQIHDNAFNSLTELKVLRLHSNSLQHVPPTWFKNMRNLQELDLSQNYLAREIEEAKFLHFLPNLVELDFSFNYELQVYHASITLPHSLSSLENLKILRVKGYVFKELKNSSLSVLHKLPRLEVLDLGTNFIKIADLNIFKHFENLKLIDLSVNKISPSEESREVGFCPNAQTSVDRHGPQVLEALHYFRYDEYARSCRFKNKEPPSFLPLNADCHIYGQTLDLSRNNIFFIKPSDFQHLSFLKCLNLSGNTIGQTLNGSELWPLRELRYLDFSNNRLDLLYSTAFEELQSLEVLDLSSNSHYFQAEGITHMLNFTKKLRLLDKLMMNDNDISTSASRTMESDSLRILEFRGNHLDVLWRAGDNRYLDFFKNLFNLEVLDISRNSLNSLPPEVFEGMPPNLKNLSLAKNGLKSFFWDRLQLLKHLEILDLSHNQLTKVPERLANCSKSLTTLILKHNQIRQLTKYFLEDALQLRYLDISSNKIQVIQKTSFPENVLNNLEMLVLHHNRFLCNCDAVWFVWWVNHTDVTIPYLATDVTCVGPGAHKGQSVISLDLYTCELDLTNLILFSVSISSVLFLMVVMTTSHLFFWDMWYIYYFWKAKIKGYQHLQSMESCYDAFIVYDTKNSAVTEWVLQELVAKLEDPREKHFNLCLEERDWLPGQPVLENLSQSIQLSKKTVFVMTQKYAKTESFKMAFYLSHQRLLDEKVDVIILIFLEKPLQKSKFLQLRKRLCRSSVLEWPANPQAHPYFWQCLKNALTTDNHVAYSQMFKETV
Method: (A) TLR7−/− (black histograms) and age matched WT C57/BL6 mice (grey histograms) were either left untreated (naive) or tape stripped to provoke inflammation. 24 hr later, skin biopsies were isolated and the levels of proinflammatory genes evaluated by Taqman. n=10 mice is shown (Mean±SEM); * p≦0.05. B) TLR9−/− were tape stripped (black histograms) or tape stripped immediately after treatment (s.c) with the dual TLR7 and TLR9 inhibitor IRS 954 (100 μg; sc) (dashed histograms). Age matched WT C57/BL6 mice were either left untreated (naïve; white histograms) or tape stripped (grey histograms). 24 hr later, skin biopsies were isolated and the levels of proinflammatory genes evaluated by Taqman. n=10 mice is shown (Mean±SEM); * p≦0.05.
C57BL/6 and 129 mice were purchased from Charles River Laboratories. (NZBxNZW)F1 female mice were purchased from Jackson Laboratories and used at 18-22 weeks of age. MyD88/KO and TLR9/KO mouse colonies were maintained at Simonsen Laboratories and used with age matched C57BL/6 wild type controls at 8-12 weeks of age. Tape stripping was performed after shaving the dorsal area (3×3 cm) using 10 strokes with duct tape. IRS was administered just before tape stripping SC at a distant site. […] Percentage of area with open lesions in (NZBxNZW)F1 and normal mice was evaluated with Nikon software NIS-elements.

5′-TGCTCCTGGAGGGGTTGT-3′ (DNA, backbone not given here) [SEQ ID NO:42]
GC-induced neutrophil expansion (PDC; lupus-prone mice, blood): reduction of the GC-induced neutrophil expansion | sensitivity to GC of PDC, cDC and B cells (PDC; lupus-prone mice, spleen and blood): enhanced the sensitivity to GC of PDC, cDC and B cells | cell death without GC (PDC; mouse, in vivo): did not induce cell death without GC | inhibition of skin gene expression (TLR7): completed the inhibition
